Reference: PubChem BioAssay (NCI)
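Tested at 5 concentrations; 48 h exposure; 96-well plates; endpoints linearly interpolated, else capped at highest concentration. GI50: concentration for 50% inhibition of growth. TGI: concentration producing complete growth inhibition.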

Assays:
Experiment in all cases: NCI-60 cell line screen, 48 h
786-0 renal = tested on: 786-0 renal
A549 NSCLC = tested on: A549 NSCLC
ACHN renal = tested on: ACHN renal
BT-549 breast = tested on: BT-549 breast
CAKI-1 renal = tested on: CAKI-1 renal
CCRF-CEM leukemia = tested on: CCRF-CEM leukemia
COLO 205 colon = tested on: COLO 205 colon
DU-145 prostate = tested on: DU-145 prostate
EKVX NSCLC = tested on: EKVX NSCLC
HCT-116 colon = tested on: HCT-116 colon
HCT-15 colon = tested on: HCT-15 colon
HOP-62 NSCLC = tested on: HOP-62 NSCLC
HS 578T breast = tested on: HS 578T breast
HT29 colon = tested on: HT29 colon
IGROV1 ovarian = tested on: IGROV1 ovarian
K-562 leukemia = tested on: K-562 leukemia
KM12 colon = tested on: KM12 colon
LOX IMVI melanoma = tested on: LOX IMVI melanoma
M14 melanoma = tested on: M14 melanoma
MALME-3M melanoma = tested on: MALME-3M melanoma
MCF7 breast = tested on: MCF7 breast
MDA-MB-231 breast = tested on: MDA-MB-231 breast
MDA-MB-435 = tested on: MDA-MB-435
MOLT-4 leukemia = tested on: MOLT-4 leukemia
NCI-H226 lung = tested on: NCI-H226 lung
NCI-H460 lung = tested on: NCI-H460 lung
NCI-H522 lung = tested on: NCI-H522 lung
OVCAR-3 ovarian = tested on: OVCAR-3 ovarian
OVCAR-4 ovarian = tested on: OVCAR-4 ovarian
OVCAR-8 ovarian = tested on: OVCAR-8 ovarian
PC-3 prostate = tested on: PC-3 prostate
RPMI-8226 leukemia = tested on: RPMI-8226 leukemia
RXF 393 renal = tested on: RXF 393 renal
SF-268 CNS = tested on: SF-268 CNS
SF-295 CNS = tested on: SF-295 CNS
SF-539 CNS = tested on: SF-539 CNS
SK-MEL-2 melanoma = tested on: SK-MEL-2 melanoma
SK-MEL-28 melanoma = tested on: SK-MEL-28 melanoma
SK-MEL-5 melanoma = tested on: SK-MEL-5 melanoma
SK-OV-3 ovarian = tested on: SK-OV-3 ovarian
SNB-19 CNS = tested on: SNB-19 CNS
SNB-75 CNS = tested on: SNB-75 CNS
SW-620 colon = tested on: SW-620 colon
T-47D breast = tested on: T-47D breast
TK-10 renal = tested on: TK-10 renal
U251 CNS = tested on: U251 CNS
UACC-257 melanoma = tested on: UACC-257 melanoma
UACC-62 melanoma = tested on: UACC-62 melanoma
UO-31 renal = tested on: UO-31 renal
A498 renal = tested on: A498 renal
HCC-2998 colon = tested on: HCC-2998 colon
HL-60(TB) leukemia = tested on: HL-60(TB) leukemia
NCI-H23 lung = tested on: NCI-H23 lung
OVCAR-5 ovarian = tested on: OVCAR-5 ovarian
SN12C renal = tested on: SN12C renal

O=C(O)CN(CCN(CC(=O)O)CC(=O)O)CC(=O)O showed a GI50 (786-0 renal) greater than 100 µM, a TGI (786-0 renal) greater than 100 µM and a GI50 (A549 NSCLC) greater than 100 µM. It also gave a TGI (A549 NSCLC) greater than 100 µM, a GI50 (ACHN renal) greater than 100 µM and a TGI (ACHN renal) greater than 100 µM. The GI50 (BT-549 breast) was greater than 100 µM, the TGI (BT-549 breast) was greater than 100 µM and the GI50 (CAKI-1 renal) was greater than 100 µM. The TGI (CAKI-1 renal) was greater than 100 µM, the GI50 (CCRF-CEM leukemia) was greater than 100 µM and the TGI (CCRF-CEM leukemia) was greater than 100 µM. For the same compound, the GI50 (COLO 205 colon) was greater than 100 µM, the TGI (COLO 205 colon) was greater than 100 µM and the GI50 (DU-145 prostate) was greater than 100 µM. The TGI (DU-145 prostate) was greater than 100 µM, the GI50 (EKVX NSCLC) was greater than 100 µM and the TGI (EKVX NSCLC) was greater than 100 µM. For the same compound, the GI50 (HCT-116 colon) was greater than 100 µM, the TGI (HCT-116 colon) was greater than 100 µM and the GI50 (HCT-15 colon) was greater than 100 µM. The TGI (HCT-15 colon) was greater than 100 µM, the GI50 (HOP-62 NSCLC) was greater than 100 µM and the TGI (HOP-62 NSCLC) was greater than 100 µM. It also gave a GI50 (HS 578T breast) greater than 100 µM, a TGI (HS 578T breast) greater than 100 µM and a GI50 (HT29 colon) greater than 100 µM. For the same compound, the TGI (HT29 colon) was greater than 100 µM, the GI50 (IGROV1 ovarian) was greater than 100 µM and the TGI (IGROV1 ovarian) was greater than 100 µM. It also gave a GI50 (K-562 leukemia) greater than 100 µM, a TGI (K-562 leukemia) greater than 100 µM and a GI50 (KM12 colon) greater than 100 µM. The TGI (KM12 colon) was greater than 100 µM, the GI50 (LOX IMVI melanoma) was greater than 100 µM and the TGI (LOX IMVI melanoma) was greater than 100 µM. The GI50 (M14 melanoma) was greater than 100 µM, the TGI (M14 melanoma) was greater than 100 µM and the GI50 (MALME-3M melanoma) was greater than 100 µM. It also gave a TGI (MALME-3M melanoma) greater than 100 µM, a GI50 (MCF7 breast) greater than 100 µM and a TGI (MCF7 breast) greater than 100 µM. The GI50 (MDA-MB-231 breast) was greater than 100 µM, the TGI (MDA-MB-231 breast) was greater than 100 µM and the GI50 (MDA-MB-435) was greater than 100 µM. It also gave a TGI (MDA-MB-435) greater than 100 µM, a GI50 (MOLT-4 leukemia) greater than 100 µM and a TGI (MOLT-4 leukemia) greater than 100 µM. For the same compound, the GI50 (NCI-H226 lung) was greater than 100 µM, the TGI (NCI-H226 lung) was greater than 100 µM and the GI50 (NCI-H460 lung) was greater than 100 µM. For the same compound, the TGI (NCI-H460 lung) was greater than 100 µM, the GI50 (NCI-H522 lung) was greater than 100 µM and the TGI (NCI-H522 lung) was greater than 100 µM. It also gave a GI50 (OVCAR-3 ovarian) greater than 100 µM, a TGI (OVCAR-3 ovarian) greater than 100 µM and a GI50 (OVCAR-4 ovarian) greater than 100 µM. It also gave a TGI (OVCAR-4 ovarian) greater than 100 µM, a GI50 (OVCAR-8 ovarian) greater than 100 µM and a TGI (OVCAR-8 ovarian) greater than 100 µM. It also gave a GI50 (PC-3 prostate) greater than 100 µM, a TGI (PC-3 prostate) greater than 100 µM and a GI50 (RPMI-8226 leukemia) greater than 100 µM. For the same compound, the TGI (RPMI-8226 leukemia) was greater than 100 µM, the GI50 (RXF 393 renal) was greater than 100 µM and the TGI (RXF 393 renal) was greater than 100 µM. For the same compound, the GI50 (SF-268 CNS) was greater than 100 µM, the TGI (SF-268 CNS) was greater than 100 µM and the GI50 (SF-295 CNS) was greater than 100 µM. The TGI (SF-295 CNS) was greater than 100 µM, the GI50 (SF-539 CNS) was greater than 100 µM and the TGI (SF-539 CNS) was greater than 100 µM. The GI50 (SK-MEL-2 melanoma) was greater than 100 µM, the TGI (SK-MEL-2 melanoma) was greater than 100 µM and the GI50 (SK-MEL-28 melanoma) was greater than 100 µM. For the same compound, the TGI (SK-MEL-28 melanoma) was greater than 100 µM, the GI50 (SK-MEL-5 melanoma) was greater than 100 µM and the TGI (SK-MEL-5 melanoma) was greater than 100 µM. The GI50 (SK-OV-3 ovarian) was greater than 100 µM, the TGI (SK-OV-3 ovarian) was greater than 100 µM and the GI50 (SNB-19 CNS) was greater than 100 µM. It also gave a TGI (SNB-19 CNS) greater than 100 µM, a GI50 (SNB-75 CNS) greater than 100 µM and a TGI (SNB-75 CNS) greater than 100 µM. For the same compound, the GI50 (SW-620 colon) was greater than 100 µM, the TGI (SW-620 colon) was greater than 100 µM and the GI50 (T-47D breast) was greater than 100 µM. The TGI (T-47D breast) was greater than 100 µM, the GI50 (TK-10 renal) was greater than 100 µM and the TGI (TK-10 renal) was greater than 100 µM. The GI50 (U251 CNS) was greater than 100 µM, the TGI (U251 CNS) was greater than 100 µM and the GI50 (UACC-257 melanoma) was greater than 100 µM. For the same compound, the TGI (UACC-257 melanoma) was greater than 100 µM, the GI50 (UACC-62 melanoma) was greater than 100 µM and the TGI (UACC-62 melanoma) was greater than 100 µM. The GI50 (UO-31 renal) was greater than 100 µM and the TGI (UO-31 renal) was greater than 100 µM.
Compound CCCCCCCCCCCCCCCCSC(=NCC)NCC has a GI50 (786-0 renal) of 3.49 µM, a TGI (786-0 renal) of 20.8 µM and a GI50 (A498 renal) of 6.66 µM. The TGI (A498 renal) was 34.3 µM, the GI50 (BT-549 breast) was 6.16 µM and the TGI (BT-549 breast) was 46.9 µM. The GI50 (CAKI-1 renal) was 1.39 µM, the TGI (CAKI-1 renal) was 2.78 µM and the GI50 (COLO 205 colon) was 1.81 µM. The TGI (COLO 205 colon) was 3.47 µM, the GI50 (DU-145 prostate) was 1.62 µM and the TGI (DU-145 prostate) was 2.98 µM. The GI50 (HCC-2998 colon) was 1.85 µM, the TGI (HCC-2998 colon) was 3.28 µM and the GI50 (HL-60(TB) leukemia) was 1.45 µM. For the same compound, the TGI (HL-60(TB) leukemia) was 3.12 µM, the GI50 (HOP-62 NSCLC) was 1.77 µM and the TGI (HOP-62 NSCLC) was 3.18 µM. For the same compound, the GI50 (HS 578T breast) was 2.8 µM, the TGI (HS 578T breast) was 8.84 µM and the GI50 (LOX IMVI melanoma) was 1.63 µM. For the same compound, the TGI (LOX IMVI melanoma) was 3 µM, the GI50 (MDA-MB-231 breast) was 1.31 µM and the TGI (MDA-MB-231 breast) was 2.69 µM. For the same compound, the GI50 (NCI-H226 lung) was 2.98 µM, the TGI (NCI-H226 lung) was 14.6 µM and the GI50 (NCI-H23 lung) was 2.05 µM. It also gave a TGI (NCI-H23 lung) of 4.99 µM, a GI50 (OVCAR-5 ovarian) of 3.08 µM and a TGI (OVCAR-5 ovarian) of 12.5 µM. For the same compound, the GI50 (PC-3 prostate) was 1.37 µM, the TGI (PC-3 prostate) was 2.74 µM and the GI50 (RXF 393 renal) was 1.63 µM. For the same compound, the TGI (RXF 393 renal) was 3.47 µM, the GI50 (SF-295 CNS) was 1.47 µM and the TGI (SF-295 CNS) was 2.88 µM. For the same compound, the GI50 (SK-MEL-2 melanoma) was 4.05 µM, the TGI (SK-MEL-2 melanoma) was 28.4 µM and the GI50 (SK-OV-3 ovarian) was 3.36 µM. The TGI (SK-OV-3 ovarian) was 11.6 µM, the GI50 (SN12C renal) was 1.56 µM and the TGI (SN12C renal) was 2.98 µM. The GI50 (SNB-19 CNS) was 3.12 µM, the TGI (SNB-19 CNS) was 15.8 µM and the GI50 (SNB-75 CNS) was 2.01 µM. For the same compound, the TGI (SNB-75 CNS) was 12.9 µM, the GI50 (T-47D breast) was 1.48 µM and the TGI (T-47D breast) was 3.13 µM. The GI50 (UACC-257 melanoma) was 1.87 µM, the TGI (UACC-257 melanoma) was 3.75 µM and the GI50 (UACC-62 melanoma) was 1.67 µM. The TGI (UACC-62 melanoma) was 3.1 µM, the GI50 (UO-31 renal) was 1.62 µM and the TGI (UO-31 renal) was 4.09 µM.
